Measurements taken from article PMC9029893 (International Journal of Molecular Sciences, 2022).

Key:
[1] = test system: clot formation and fibrinolysis in human citrate plasma; assay: Clot formation and fibrinolysis test (CL-test); format: biochemical
Procedure: The effects of the […] on overall hemostasis potential by means of clot formation and fibrinolysis test (CL-test) were further tested based on the continuous measurement of the changes in optical transmittance over time, as described by Kostka et al. and Sikora et al.. These experiments were conducted using 470 µL of three-fold diluted human citrate plasma, 10 µL of the tested compounds, and 10 µL t-PA (final concentration in a sample 220 ng/mL). The clot formation was triggered by thrombin (10 µL, final concentration 0.5 IU/mL). The clot formation and lysis curves were determined at a wavelength of 405 nm with a spectrophotometer (Cecil CE 2021; London, UK) with circulating thermostated water (37 °C) and a Model 300 Electronic Stirrer (Rank Brothers Ltd., Cambridge, UK). The experiments were conducted in multiplicate (n = 5–7), and the results are presented as mean ± SD.
The received graphs were analyzed using dedicated software to determine the kinetic parameters of clot formation, stabilization, and fibrinolysis. The following parameters of clot formation were determined: Tt—thrombin time (s), Fmax—maximum clotting (%T), Tf—plasma clotting time (s), Fvo—initial plasma clotting velocity (%T/min), Sr—area under the clot formation curve (%Txmin). The parameters of the clot stabilization phase comprised Tc—clot stabilization time (s), Sc—area under the curve of stable clot formation (%Txmin). The parameters of fibrinolysis comprised Lmax—maximum lysis (%T), Tl—fibrinolysis time (s), Lvo—initial clot fibrinolysis velocity (%T/min), Sf—area under the fibrinolysis curve (%Txmin). Additionally, the overall potential of clot formation and fibrinolysis (CLAUC, (%Txmin)) and total time of the process of clot formation and fibrinolysis (T, (s)) were also estimated.

[2] = WST-1 cell viability assay, HUVEC; settings: human, HUVEC cells
Procedure: HUVEC and AoSMC viability were tested using the WST-1 cell viability assay (Takara Bio Europe, Saint-Germain-en-Laye, France). […] Briefly, HUVEC and AoSMC were seeded at densities of 7500 and 5000 cells per well on 96-well plates. The cells were cultivated for up to 24 h to achieve 70% confluency, and subsequently treated with tested compounds diluted in medium (1 + 9; v = 100 μL) or pure medium (control). The plates were incubated at 37 °C (5% CO2) for the next 24 h. Then, the cells were rinsed with 100 μL culture medium, and WST-1 reagent diluted in medium (100 μL) was added; the plates were then incubated again (37 °C, 5% CO2) for another 90 min. The absorbance was measured at 450 nm (iMARK, Bio-Rad, Hercules, CA, USA). The experiments were performed in multiplicate (n = 8) and the results were presented as mean ± SD. The cell viability was expressed as a percentage of the control samples, which constituted 100% viability. […] The variability coefficient of the method was estimated (CV(HUVEC) = 8.94%, n = 8; CV(AoSMC) = 5.84%, n = 10).

[3] = test system: AoSMC cells; assay: WST-1 cell viability assay, AoSMC; settings: Homo sapiens, 24 h, read-out: Viability-IC50, AoSMC cells

Compound: CCCCCCCCS(=O)(=O)NC(N)=NC(=N)N(C)C [Compound 2]
- Fmax—maximum clotting ([1]; 0.06 mM): 66.77 ± 5.68 %T
- Fvo—initial plasma clotting velocity ([1]; 0.06 mM): 203.43 ± 22.00 %T/min
- Lmax—maximum lysis ([1]; 0.06 mM): 67.40 ± 5.38 %T
- Lvo—initial clot fibrinolysis velocity ([1]; 0.06 mM): 22.29 ± 4.30 %T/min
- Sc—area under the curve of a stable clot formation ([1]; 0.06 mM): 323.20 ± 94.05 %T x min
- Sf—area under the clot formation curve ([1]; 0.06 mM): 44.40 ± 9.07 %T x min
- Sl (area under the fibrinolysis curve) ([1]; 0.06 mM): 148.45 ± 47.41 %T x min
- S—overall potential of clot formation and fibrinolysis (CLAUC) ([1]; 0.06 mM): 516.05 ± 146.55 %T x min
- Tc—clot stabilization time ([1]; 0.06 mM): 296.57 ± 72.31 s
- Tf—plasma clotting time ([1]; 0.06 mM): 56.56 ± 8.57 s
- Tl—fibrinolysis time ([1]; 0.06 mM): 240.14 ± 65.11 s
- Tt—thrombin time ([1]; 0.06 mM): 16.86 ± 4.24 s
- T—total time of the process of clot formation and fibrinolysis ([1]; 0.06 mM): 610.13 ± 145.50 s
- Fmax—maximum clotting ([1]; 0.3 mM): 68.99 ± 5.55 %T
- Fvo—initial plasma clotting velocity ([1]; 0.3 mM): 194.00 ± 48.64 %T/min
- Lmax—maximum lysis ([1]; 0.3 mM): 69.49 ± 5.34 %T
- Lvo—initial clot fibrinolysis velocity ([1]; 0.3 mM): 19.83 ± 6.57 %T/min
- Sc—area under the curve of a stable clot formation ([1]; 0.3 mM): 344.01 ± 74.34 %T x min
- Sf—area under the clot formation curve ([1]; 0.3 mM): 46.00 ± 9.83 %T x min
- Sl (area under the fibrinolysis curve) ([1]; 0.3 mM): 153.63 ± 43.80 %T x min
- S—overall potential of clot formation and fibrinolysis (CLAUC) ([1]; 0.3 mM): 543.64 ± 122.37 %T x min
- Tc—clot stabilization time ([1]; 0.3 mM): 309.14 ± 68.74 s
- Tf—plasma clotting time ([1]; 0.3 mM): 59.24 ± 16.26 s
- Tl—fibrinolysis time ([1]; 0.3 mM): 252.00 ± 73.00 s
- Tt—thrombin time ([1]; 0.3 mM): 17.54 ± 5.79 s
- T—total time of the process of clot formation and fibrinolysis ([1]; 0.3 mM): 637.93 ± 155.22 s
- Fmax—maximum clotting ([1]; 0.6 mM): 67.40 ± 9.57 %T
- Fvo—initial plasma clotting velocity ([1]; 0.6 mM): 214.14 ± 50.85 %T/min
- Lmax—maximum lysis ([1]; 0.6 mM): 68.19 ± 9.82 %T
- Lvo—initial clot fibrinolysis velocity ([1]; 0.6 mM): 20.37 ± 7.03 %T/min
- Sc—area under the curve of a stable clot formation ([1]; 0.6 mM): 344.82 ± 65.62 %T x min
- Sf—area under the clot formation curve ([1]; 0.6 mM): 44.34 ± 10.50 %T x min
- Sl (area under the fibrinolysis curve) ([1]; 0.6 mM): 143.77 ± 40.07 %T x min
- S—overall potential of clot formation and fibrinolysis (CLAUC) ([1]; 0.6 mM): 532.93 ± 111.10 %T x min
- Tc—clot stabilization time ([1]; 0.6 mM): 319.00 ± 63.63 s
- Tf—plasma clotting time ([1]; 0.6 mM): 55.80 ± 11.60 s
- Tl—fibrinolysis time ([1]; 0.6 mM): 247.43 ± 74.21 s
- Tt—thrombin time ([1]; 0.6 mM): 17.57 ± 3.74 s
- T—total time of the process of clot formation and fibrinolysis ([1]; 0.6 mM): 639.80 ± 148.09 s
- Fmax—maximum clotting ([1]; 1.5 mM): 61.57 ± 7.24 %T
- Fvo—initial plasma clotting velocity ([1]; 1.5 mM): 177.43 ± 34.91 %T/min
- Lmax—maximum lysis ([1]; 1.5 mM): 62.14 ± 6.63 %T
- Lvo—initial clot fibrinolysis velocity ([1]; 1.5 mM): 20.07 ± 6.59 %T/min
- Sc—area under the curve of a stable clot formation ([1]; 1.5 mM): 346.35 ± 92.32 %T x min
- Sf—area under the clot formation curve ([1]; 1.5 mM): 44.31 ± 12.08 %T x min
- Sl (area under the fibrinolysis curve) ([1]; 1.5 mM): 133.78 ± 47.19 %T x min
- S—overall potential of clot formation and fibrinolysis (CLAUC) ([1]; 1.5 mM): 524.43 ± 146.77 %T x min
- Tc—clot stabilization time ([1]; 1.5 mM): 351.43 ± 96.53 s
- Tf—plasma clotting time ([1]; 1.5 mM): 61.21 ± 14.65 s
- Tl—fibrinolysis time ([1]; 1.5 mM): 249.14 ± 80.94 s
- Tt—thrombin time ([1]; 1.5 mM): 24.37 ± 7.41 s
- T—total time of the process of clot formation and fibrinolysis ([1]; 1.5 mM): 686.16 ± 190.86 s
- viability at 24 h, 0.06 mM [2]: 75.9 ± 5.85%
- viability at 24 h, 0.3 mM [2]: 71.5 ± 3.12%
- viability at 24 h, 3 mM [2]: 41.5%
- viability at 24 h, 5 mM [2]: 32.1%
- IC50 [3]: 3.71 ± 0.54 mM
